# Measured values: publication PMC5320532, “Intracellular drug bioavailability: a new predictor of system dependent drug disposition” (Scientific Reports, 2017)
# Entries after “also recorded” stand apart in the source; their conditions may differ. Like-named read-outs stand apart in the source and are kept apart here.
# Key:
# P-gp [1] = assay: Intracellular compound accumulation (Kp) and intracellular bioavailability (Fic); details: dog, P-gp-KO (CRISPR) MDCK cells
# Method: (§1) To determine intracellular unbound compound concentrations, we measured intracellular fraction of unbound compound (fu,cell) in parallel with total intracellular compound accumulation (Ccell), as described below. Intracellular compound bioavailability (Fic) was calculated as the ratio between intracellular unbound compound concentration (Cu,cell = fu,cell∙Ccell) (the concentration available to bind intracellular targets) and the externally added compound concentration (Cmedium):
# (§2) HEK293 cells were grown for two days in 24-well plates, as previously described[25]. MDCK cells were grown for two days in 96-well plates, prior to the intracellular compound accumulation experiments. The growth media were the same as described in the section ‘Cell line maintenance’ without addition of hygromycin B to avoid transporter inhibition.
# (§3) Intracellular compound accumulation at steady-state was measured essentially as described before[25]. Briefly, cells were washed twice with HBSS and incubated for 45 min with solutions of single test compounds (in HBSS) on an orbital shaker (300 rpm) at 37 °C. At the end of the experiment, the remaining extracellular compound solutions were collected and cells were washed twice with ice-cold phosphate-buffered saline pH 7.4 (PBS). For hepatocytes in suspension, the cells were separated from the extracellular solutions by centrifugation (100 × g for 5 min). Compounds were extracted from the cells using acetonitrile/water (60:40) spiked with 50 nM warfarin (internal standard). Extracellular medium samples were diluted 10-fold with the same extraction solution. […] Protein concentrations were measured in representative wells of the plates using the BCA Protein Assay Reagent Kit (Thermo Fisher Scientific Inc.).
# (§4) The ratio between total compound concentrations in the cells and in the medium (Kp) was calculated according to:
# (§5) where Acell is the amount of compound in the cell samples, Vcell is the cell volume (6.5 μL/mg protein[80]), and Cmedium is the compound concentration in the medium sample.
# [2] = Intracellular fraction of unbound compound (fu,cell), dialysis of cell homogenate; details: human, mock-transfected HEK293 cell homogenate
# [3] = as above; format: in vitro ADME; details: freshly isolated human hepatocyte homogenate; geometrical mean ± S.E.M.; read-out: fu,cell hepatocytes
# [4] = Intracellular compound accumulation (Kp) and intracellular bioavailability (Fic); details: human, mock-transfected HEK293 cells
# Method: as §1, §2, §3, §4, §5
# [5] = Intracellular fraction of unbound compound (fu,cell), dialysis of cell homogenate; details: dog, homogenate of MDCK cells transfected with human P-gp
# P-gp [6] = assay: Intracellular compound accumulation (Kp) and intracellular bioavailability (Fic); details: dog, P-gp-transfected MDCK cells
# Method: as §1, §2, §3, §4, §5
# [7] = Intracellular fraction of unbound compound (fu,cell), dialysis of cell homogenate; format: in vitro ADME; details: human; OATP1B1-transfected HEK293 cell homogenate; geometrical mean ± S.E.M.; read-out: Cell binding (fu,cell)
# Method: For intracellular fraction of unbound compound experiments, cell lines or primary cells were suspended to a concentration of 10 × 10^6 cells/ml in Hank’s balanced salt solution (HBSS). Cell suspensions were homogenized for 10 s with a VCX-500 ultrasonic processor (Sonics & Materials) at 20% intensity and used immediately for binding experiments.
# Binding to cell homogenates at steady-state was measured using dialysis as previously described. […] Briefly, the cell homogenate was spiked with six randomly-chosen compounds. Homogenates were dialyzed for 4 h using a Rapid Equilibrium Dialysis device (Thermo Fisher Scientific Inc.). At the end of the incubation, uniform sample matrices were obtained by addition of blank homogenate to samples from the buffer chamber, and by addition blank buffer to samples from the homogenate chamber. Dilutions of samples from the homogenate chambers (10-fold and 100-fold) were prepared. […] Compounds in the supernatant were analyzed by ultra-performance liquid chromatography coupled to tandem mass spectrometry (UPLC-MS/MS), as described below.
# The fraction of compound that was not bound to cell homogenate (fu,hom) was calculated according to: […]
# where PAbuffer is the peak area of compound in the buffer chamber and PAhom is the peak area of compound in the homogenate chamber, both corrected for the peak area of the internal standard in the respective chamber. For each compound, the dilution of the homogenate sample where PAhom was closest to PAbuffer was used.
# The fraction of unbound compound in the cell (fu,cell) was calculated according to: […]
# P-gp [8] = assay: Intracellular compound accumulation (Kp) and intracellular bioavailability (Fic); details: dog, MDCK II wild-type cells
# Method: as §1, §2, §3, §4, §5
# OATP1B1 [9] = assay: as above; details: human, OATP1B1-transfected HEK293 cells
# [10] = as above; format: in vitro ADME; details: geometrical mean ± S.E.M.; for Kp at 45 min: freshly isolated human hepatocytes in suspension; for Kp at 24 h: human hepatocytes cultured for 24 h in monolayer format, Monolayer hepatocytes (human, 24 h culture)
# Method: where Kp is the ratio Ccell/Cmedium.
# Hepatocytes were isolated from human liver tissue obtained from two donors undergoing surgical resections at the Department of Surgery, Uppsala University Hospital. […] Isolation was performed using a two-step collagenase procedure, as previously described.
# For the corresponding experiments in human hepatocytes, two cell culture configurations were used: freshly isolated cells in suspension, or cells cultivated as monolayers for 24 h. The freshly isolated cells were suspended directly after isolation at a concentration of 5 × 10^6 cells/ml in HBSS. The cell suspension (100 μl) was added to 96-well plates, which were immediately used for accumulation experiments. […] After cell attachment, medium was replaced by hepatocyte maintenance medium (Lonza) supplemented with insulin (10 μg/ml), transferrin (5.5 μg/ml), selenium (5 ng/ml), penicillin (100 units/ml), streptomycin (100 μg/ml), and dexamethasone (0.1 μM). Cells were kept in maintenance medium for 24 h, until the start of the intracellular compound accumulation experiments.
# [11] = test system: mock-transfected HEK293 cells; details: human
# Method: as §1, §2, §3, §4, §5
# [12] = test system: P-gp-transfected MDCK cells; details: dog
# Method: as §1, §2, §3, §4, §5
# MDCK II wild-type cells = details: dog
# Method: as §1, §2, §3, §4, §5
# [13] = test system: OATP1B1-transfected HEK293 cells; details: human
# Method: as §1, §2, §3, §4, §5
# in vitro [14] = details: dog
# in vitro [15] = details: human
# P-gp [16] = assay: in vitro; details: dog
# Method: as §1, §2, §3, §4, §5
# [17] = test system: P-gp-transfected MDCK cells (+ elacridar); details: dog, MDCK-MDR1
# P-gp [18] = test system: P-gp; parameters: method as in earlier work; details: dot = substrate; collated from literature ref 74, 75, 76; cited from earlier work
# [19] = test system: P-gp-KO (CRISPR) MDCK cells; details: dog
# Method: as §1, §2, §3, §4, §5
# OATP1B1 [20] = details: dot = substrate; collated from literature ref 74, 75, 76; cited from earlier work
# [21] = parameters: method as in PMID 19785645; details: human subjects; co-administration of cyclosporine A ref 58; cited from earlier work
# [22] = test system: P-gp-transfected MDCK cells; assay: Intracellular compound accumulation (Kp) and intracellular bioavailability (Fic); details: 0.5 μM; ratio cP-gp-KO/P-gp-transfected
# Method: as §1, §2, §3, §4, §5
# [23] = test system: primary human hepatocytes; assay: Metabolic clearance (CLint) in primary human hepatocytes; format: in vitro ADME; details: 1 μM; freshly isolated human hepatocytes in suspension vs after 24 h in monolayer
# Method: Metabolic clearance (CLint) was determined, as previously described. […] At time points 0, 10, 30, and 60 min, the reaction was stopped by addition of acetonitrile (200 μl) spiked with 50 nM warfarin (internal standard). […] CLint was calculated as the product of the compound disappearance rate and incubation volume, normalized by the cell number.
"Kp at 45 min, 0.5 μM (P-gp [1])",fraction unbound at 4 h [2],fraction unbound at 4 h [3],"Kp at 45 min, 0.1 μM [4]",fraction unbound at 4 h [5],"Kp at 45 min, 0.5 μM (P-gp [6])",fraction unbound at 4 h [7],Kp at 45 min (P-gp [8]),"Kp at 45 min, 0.1 μM (OATP1B1 [9])",Kp at 45 min [10],Kp at 24 h [10],SMILES,P-gp substrate (P-gp [18]),further results
25 ± 2,0.053 ± 0.006,0.048 ± 0.012,13 ± 2,0.025 ± 0.005,18 ± 2,0.065 ± 0.004,22 ± 2,14 ± 1,50 ± 17,49 ± 4,COc1ccc2c(c1)c(CC(=O)O)c(C)n2C(=O)c1ccc(Cl)cc1 [Indomethacin],,
,,,,,,,,,,,CN(C)C(=O)C(CCN1CCC(O)(c2ccc(Cl)cc2)CC1)(c1ccccc1)c1ccccc1 [Loperamide],●,intracellular bioavailability (Fic) [11]: 4.3±1.7; intracellular bioavailability (Fic) [12]: 0.13±0.13; intracellular bioavailability (Fic) (MDCK II wild-type cells): 0.50±0.51; intracellular bioavailability (Fic) [13]: 6.8±1.8; fraction unbound (in vitro [14]): 0.00051 ± 0.00051; fraction unbound (in vitro [15]): 0.0078 ± 0.0008; Kp (P-gp [16]): 987 ± 198; intracellular bioavailability (Fic) [17]: 0.33±0.33; intracellular bioavailability (Fic) [19]: 0.34±0.35
13 ± 1,0.023 ± 0.005,0.017 ± 0.011,4.2 ± 0.3,0.023 ± 0.005,11 ± 2,0.025 ± 0.006,11,35 ± 3,,,O=C(O)C[C@H](O)C[C@H](O)/C=C/c1c(C2CC2)nc2ccccc2c1-c1ccc(F)cc1 [Pitavastatin],●,OATP1B1 substrate (OATP1B1 [20]): ●; increase of AUC by cyclosporine A [21]: 5- to 15 fold
67 ± 11,0.058 ± 0.004,0.02 ± 0.006,19 ± 2,0.021 ± 0.003,30 ± 4,0.044 ± 0.001,38 ± 7,15 ± 2,152 ± 12,196 ± 17,CN(CCOc1ccc(CC2SC(=O)NC2=O)cc1)c1ccccn1 (stereo not shown) [Rosiglitazone],,
1080 ± 50,0.00039 ± 8e-05,,337 ± 113,0.0001 ± 4e-05,53 ± 19,0.00044 ± 0.0001,494 ± 74,652 ± 228,,,Cc1c(O)cccc1C(=O)N[C@@H](CSc1ccccc1)[C@H](O)CN1C[C@H]2CCCC[C@H]2C[C@H]1C(=O)NC(C)(C)C [Nelfinavir],●,Fic fold lower in P-gp-transfected than in cP-gp-KO MDCK cells [22]: 20 fold
,,,,,,,,,,,CC(C)(C)NCC(O)COc1ccc(NC(=O)NC2CCCCC2)cc1 (stereo not shown) [Talinolol],,fraction unbound (in vitro [15]): 0.074 ± 0.003
,,,,,,,,,,,CC(C)c1nc(CN(C)C(=O)N[C@H](C(=O)N[C@@H](Cc2ccccc2)C[C@H](O)[C@H](Cc2ccccc2)NC(=O)OCc2cncs2)C(C)C)cs1 [Ritonavir],●,"metabolic clearance (CLint), suspension vs monolayer hepatocytes [23]: higher rates; also recorded: reduced"
53 ± 4,0.017 ± 0.003,,45 ± 6,0.0099 ± 0.0026,21 ± 2,0.015 ± 0.001,35 ± 5,94 ± 12,,,CC(C)n1c(/C=C/C(O)CC(O)CC(=O)O)c(-c2ccc(F)cc2)c2ccccc21 (stereo not shown) [Fluvastatin],●,OATP1B1 substrate (OATP1B1 [20]): ●; increase of AUC by cyclosporine A [21]: 3- to 4 fold

SMILES,"Kp at 45 min, 0.5 μM (P-gp [1])",fraction unbound at 4 h [2],fraction unbound at 4 h [3],"Kp at 45 min, 0.1 μM [4]",fraction unbound at 4 h [5],"Kp at 45 min, 0.5 μM (P-gp [6])",fraction unbound at 4 h [7],Kp at 45 min (P-gp [8]),"Kp at 45 min, 0.1 μM (OATP1B1 [9])",Kp at 45 min [10],Kp at 24 h [10],P-gp substrate (P-gp [18]),further results
COc1ccc(CCN2CCC(Nc3nc4ccccc4n3Cc3ccc(F)cc3)CC2)cc1 [Astemizole],2010 ± 200,0.0018 ± 0.0006,0.00036 ± 0.00012,821 ± 253,,995 ± 94,0.0013 ± 0.0004,1680 ± 71,738 ± 576,1990 ± 1090,1600 ± 308,,fraction unbound (in vitro [14]): 1e-05 ± 2e-05
